Experimental data as given in US8481690B2, “Methods for detecting symmetrical dimethylarginine” (IDEXX Laboratories, Inc., priority 2008, dated 2013).
Values after ≈ are worked out from the molar mass of the structure shown.

Tests used:
Type in all cases: binding
[1] = system: polyclonal antibody from Rabbit No. 154; experiment: Specificity determined with greater stringency, polyclonal antibody from Rabbit No. 154; conditions: Rabbit No. 154, greater stringency
Protocol: (§1) In order to assess the specificity of the antibodies obtained by the procedures described in Example 3 above, their reactivity to SDMA, ADMA, L-arginine, and/or N-methylarginine was measured in a competitive ELISA assay (Table 1).
(§2) ADMA-2HCl, SDMA-2HCl, N-methylarginine acetate (Sigma, Cat. No. M7033) or L-arginine (Sigma, Cat. No. A5006) were each dissolved in PBS to make stock solutions at 1 mg/ml. From these stock solutions, working solutions at 100 μg/ml, 10 μg/m and 1 μg/m were prepared in PBS.
(§3) 50 μl of the SDMA-HRP conjugate (as described in Example 5 below), 50 μl of ADMA, SDMA, N-methylarginine or L-arginine (at concentrations from 1-100 μg/ml as described above), and 50 μl of rabbit anti-SDMA antibody in serum (1:3000 titer) were sequentially added to an individual well in a 96-well polystyrene microwell plate, precoated with sheep anti-rabbit IgG (commercially available from Beacon Analytical Systems Inc. of Portland, Me.). After a 30 minutes incubation period at room temperature, the wells were washed 4 times with PBST (Phosphate Buffered Saline, 0.05% Tween).
(§4) 100 μl of 3,3′,5,5′-Tetramethylbenzidine (commercially available from Promega Corporation of Madison, Wis.) was subsequently added. Following a 30 minutes incubation period at room temperature, 100 μl of stop solution (1 N HCl) was added and the absorbance was measured at […] using a BioTek ELX 808 (Winooski, Vt.) plate reader. The data was subjected to quantification using Softmax software (Molecular Devices, Sunnyvale, Calif.).
The absorbance values obtained with 0 μg/mL, 1 μg/mL, 10 μg/mL, and 100 μg/mL of ADMA, SDMA, N-methylarginine or L-arginine, respectively, were determined and plotted. […]
In another experiment, using only polyclonal antibody from Rabbit No. 154, the specificity of the antibody was determined with greater stringency by the method described above.

[2] = system: rabbit anti-SDMA antibody in serum, Rabbit # 155 (SDMA conjugated with BSA immunogen); experiment: Competitive ELISA, specificity of anti-SDMA antibody, Rabbit # 155; conditions: Rabbit # 155 (1:3K); for IC 50: competition with SDMA-HRP conjugate
Protocol: as §1, §2, §3, §4
(§5) The absorbance values obtained with 0 μg/mL, 1 μg/mL, 10 μg/mL, and 100 μg/mL of ADMA, SDMA, N-methylarginine or L-arginine, respectively, were determined and plotted. The concentration of SDMA at which the absorbance value was reduced by 50% (relative to the maximum absorbance obtained at 0 μg/mL SDMA; i.e. IC50) was divided by each of the concentrations of ADMA, N-methylarginine or L-arginine, respectively, at which the absorbance value was reduced by 50% (IC50). The resulting value was multiplied by 100 to obtain the value “% cross-reactivity”.

[3] = system: rabbit anti-SDMA antibody in serum, Rabbit # 153 (SDMA conjugated with KLH immunogen); experiment: Competitive ELISA, specificity of anti-SDMA antibody, Rabbit # 153; conditions: Rabbit # 153 (1:2.5K); for IC 50: competition with SDMA-HRP conjugate
Protocol: as §1, §2
(§6) […] After a 30 minutes incubation period at room temperature, the wells were washed 4 times with PBST (Phosphate Buffered Saline, 0.05% Tween).
as §4, §5

[4] = system: rabbit anti-SDMA antibody in serum, Rabbit # 157 (SDMA conjugated with BSA immunogen); experiment: Competitive ELISA, specificity of anti-SDMA antibody, Rabbit # 157; conditions: Rabbit # 157 (1:15K); for IC 50: competition with SDMA-HRP conjugate
Protocol: as §1, §2, §6, §4, §5

[5] = system: rabbit anti-SDMA antibody in serum, Rabbit # 152 (SDMA conjugated with KLH immunogen); experiment: Competitive ELISA, specificity of anti-SDMA antibody, Rabbit # 152; conditions: Rabbit # 152 (1:5K); for % Cross Reactivity: IC50 of SDMA divided by IC50 of competitor x 100; for IC 50: competition with SDMA-HRP conjugate, absorbance reduced by 50%
Protocol: as §1, §2, §6, §4, §5

[6] = system: rabbit anti-SDMA antibody in serum, Rabbit # 154 (SDMA conjugated with KLH immunogen); experiment: Competitive ELISA, specificity of anti-SDMA antibody, Rabbit # 154; conditions: Rabbit # 154 (1.25K); for IC 50: competition with SDMA-HRP conjugate
Protocol: as §1, §2, §6, §4, §5

[7] = system: rabbit anti-SDMA antibody in serum, Rabbit # 156 (SDMA conjugated with BSA immunogen); experiment: Competitive ELISA, specificity of anti-SDMA antibody, Rabbit # 156; conditions: Rabbit # 156 (1:20K); for IC 50: competition with SDMA-HRP conjugate
Protocol: as §1, §2, §6, §4, §5

Structure (SMILES) | Specificity (Cross-Reactivity) [1] [%] | % Cross Reactivity [2] [%] | IC 50 [2] [µg/mL] | % Cross Reactivity [3] [%] | IC 50 [3] [µg/mL] | % Cross Reactivity [4] [%] | IC 50 [4] [µg/mL] | % Cross Reactivity [5] [%] | IC 50 [5] [µg/mL] | % Cross Reactivity [6] [%] | IC 50 [6] [µg/mL] | % Cross Reactivity [7] [%] | IC 50 [7] [µg/mL]
C/N=C(\NC)NCCCC(N)C(=O)O (stereo not drawn) [SDMA, symmetrical dimethylarginine] | 100 | 100 | 0.73 (≈ 3.61 µM) | 100 | 0.65 (≈ 3.21 µM) | 100 | 1.6 (≈ 7.91 µM) | 100 | 1.10 (≈ 5.44 µM) | 100 | 0.49 (≈ 2.42 µM) | 100 | 1.3 (≈ 6.43 µM)
CNC(=N)NCCCC(N)C(=O)O (stereo not drawn) [N-MMA, N-monomethylarginine] | – | <1 | 79 (≈ 420 µM) | <1 | >100 | <1 | >100 | <1 | >100 | <1 | >100 | <1 | >100
N=C(N)NCCC[C@H](N)C(=O)O [L-Arginine, arginine] | <0.01 | <1 | >100 | <1 | >100 | <1 | >100 | <1 | >100 | <1 | >100 | <1 | >100
CN(C)C(=N)NCCCC(N)C(=O)O (stereo not drawn) [ADMA, asymmetrical dimethylarginine] | <0.2 | <1 | >100 | <1 | >100 | <1 | >100 | <1 | >100 | <1 | >100 | <1 | >100
